Results published in PMC5512541 (Science translational medicine, 2016).
Like-named read-outs stand apart in the source and are kept apart here.

Legend:
ISF Aβ40 and Aβ42 = test: In vivo microdialysis of hippocampal ISF Aβ after γ-secretase inhibitor; design: species or system mouse; details: APP/PS1 and APP/PS1; nExt1CKO mice, 3-4 months; LY411575 5 mg/kg intraperitoneally; hippocampal microdialysis samples every 60 min for 6 hr; ELISA
amyloid pathology = details: administration in a mouse model of AD; ref [65]; cited from earlier work
[1] = human cerebrospinal fluid (CSF); endogenous Aβ; ref [8], [9]; cited from earlier work
[2] = mouse interstitial fluid (ISF); endogenous Aβ; ref [8], [9]; cited from earlier work

## C[C@H](NC(=O)[C@@H](O)c1cc(F)cc(F)c1)C(=O)N[C@@H]1C(=O)N(C)c2ccccc2-c2ccccc21 [γ-secretase inhibitor, LY411575]
ISF Aβ40 and Aβ42
  ISF Aβ40 and Aβ42 concentration after treatment: gradually decreased in a time-dependent manner

## low-molecular-weight heparin
Amyloid pathology
  effect on amyloid pathology: reduced amyloid pathology

## amyloid-β [Aβ]
[1]
  half-life in the brain: ~ 8 hours
[2]
  half-life in the brain: 1 to 2 h
